Data taken from PMC12040169 (PLOS Biology, 2025).

test: in vitro; conditions: human, hela cells, % viability

Going from `O=C(Nc1ccc(S(=O)(=O)NCCN2CCOCC2)cc1)N1CCCC1` [CBK270015] to `O=S(=O)(c1ccc(NC(=S)NCc2cccnc2)cc1)N1CCOCC1` [CBK268396], the viability at 28.5 h, 10 µM falls from 89.8% to 72.8%.

First: Cc1ccc(CCn2cc(C)nc2C)cn1 [CBK021231]
Second: CCCn1cc(S(=O)(=O)N2CCCC2c2ccc(Nc3cccc(C)n3)cn2)c(C)n1 (centres unmarked) [CBK286258]
The viability at 28.5 h, 10 µM of the first is higher: 106% for the first, 77.6% for the second.

Going from `O=C(Cn1c(-c2cncs2)nc2ccccc21)NCc1ccc2c(c1)OCO2` [CBK264699] to `O=C(NCC1COc2ccccc2O1)c1ccc2[nH]ccc2c1` (centres unmarked) [CBK149054], the viability at 28.5 h, 10 µM falls from 95.5% to 91.2%.

First: CCc1nc2ccc(C(=O)N(C)CCN(C)C)cn2c1N(CC)Cc1cccc(Br)c1 [CBK146962]
Second: CCc1nc2ccc(C(=O)NCCc3c[nH]c4ccccc34)cn2c1N(C)Cc1ccncc1 [CBK145636]
The viability at 28.5 h, 10 µM of the first is lower: 93.1% for the first, 99.7% for the second.

First: Cc1ccc(C(=O)CCC(=O)CCC(=O)O)cc1 [CBK265546]
Second: Cc1ccc(N)c(C(=O)CCC(=O)O)c1 [CBK017815C]
The viability at 28.5 h, 10 µM of the first is higher: 95.6% for the first, 92.1% for the second.

Compared with `COc1cccc(Oc2cnc(-c3ccc(C(=O)N(C)C)cc3)c(N)n2)c1` [CBK145185], `COc1ccc(Nc2ccc(-c3cnc(OC)nc3OC)cn2)c(C)c1` [CBK036827] is higher in viability at 28.5 h, 10 µM: 95.5% for the first, 115% for the second.

First: COc1ccccc1Oc1ccc(NS(=O)(=O)c2cccc(C(=O)O)c2)cc1 [CBK296728]
Second: CN(Cc1nc(-c2cccnc2)no1)S(=O)(=O)c1ccc2ccccc2c1 [CBK267385]
The viability at 28.5 h, 10 µM of the first is higher: 108% for the first, 87.2% for the second.

Compared with `Cc1cccc(Cn2cnc(NC(=O)Nc3cccc(Cl)c3C)n2)c1` [CBK266876], `O=c1[nH]c2ncc(-c3cccc4ncccc34)nc2n1Cc1ccccc1` [CBK064245] is lower in viability at 28.5 h, 10 µM: 89.5% for the first, 89.4% for the second.

Compared with `CC(C)(C)OC(=O)N1CCC2(CC1)NC(=O)c1cc(-c3cccnc3)ccc1O2` [CBK083517], `COc1ccc(C(=O)N2CCC3(CC2)NC(=O)c2ccc(C(F)(F)F)cc2O3)cc1OC` [CBK166265] is higher in viability at 28.5 h, 10 µM: 94.1% for the first, 102% for the second.

First: C[C@H]1CN2C[C@H](O)CC2CN1Cc1cn(C)c2ccc(F)cc12 (some centres unmarked) [CBK285428]
Second: C[C@@H]1CN2CCCC2CN1Cc1ccc2ncccc2c1 (some centres unmarked) [CBK284555]
The viability at 28.5 h, 10 µM of the first is lower: 97.6% for the first, 99.3% for the second.

Going from `Oc1c(C(c2ccccc2)N2CCc3ccccc3C2)sc2ncnn12` (centres unmarked) [CBK287612] to `CC(=O)c1cc(C(=O)NC(c2ccccc2)c2cccnc2)cs1` (centres unmarked) [CBK282514], the viability at 28.5 h, 10 µM rises from 99.9% to 125%.

First: COc1ccc(C(=O)Nc2nnc(-c3ccc(OC)c(OC)c3)o2)cc1OC [CBK287745]
Second: COc1ccc([C@@]23CC[C@H](NC(=O)Nc4cccc(C(F)(F)F)c4F)C[C@@H]2CN(C)C3)cc1OC [CBK063200A]
The viability at 28.5 h, 10 µM of the first is higher: 93.7% for the first, 92.3% for the second.

Going from `CCNc1nc(-c2ccc(SCC)cc2)cn2ccnc12` [CBK066489] to `Cc1ccccc1CNC(=O)CCSc1ccc(Cl)cc1` [CBK264040], the viability at 28.5 h, 10 µM falls from 114% to 102%.

Compared with `CCc1nnc(CN2CCCC(c3cc(C(N)=O)[nH]n3)C2)o1` (centres unmarked) [CBK305213], `Cc1cc(C(=O)N2CCN(Cc3ccco3)C[C@@H]2C(C)C)c(C)[nH]1` [CBK284254] is higher in viability at 28.5 h, 10 µM: 74.5% for the first, 88.2% for the second.

Going from `O=[N+]([O-])c1ccccc1S(=O)(=O)N1CCN(S(=O)(=O)c2ccc(F)cc2)CC1` [CBK264236] to `O=[N+]([O-])c1ccccc1S(=O)(=O)NCCSCc1ccc(Cl)c(Cl)c1` [CBK058810], the viability at 28.5 h, 10 µM rises from 92.7% to 104%.

Compared with `O=C(NCc1cccnc1)C1CCCN(c2nc3c(-c4ccccc4)csc3c(=O)[nH]2)C1` (centres unmarked) [CBK215492], `Cn1c(-c2ccccc2)cnc1NC(=O)CC1CCN(C(=O)Cc2ccccc2)CC1` [CBK285966] is lower in viability at 28.5 h, 10 µM: 112% for the first, 96.9% for the second.

Compared with `O=C(c1cncnc1)N1CCC2(CCCNC2)C1` (centres unmarked) [CBK153237C], `Cc1ccc(C(=O)N2CCN(CC(=O)N3CCCC3)CC2)cc1` [CBK039096] is higher in viability at 28.5 h, 10 µM: 89.7% for the first, 110% for the second.

First: Cc1ccc2oc(CN3CCn4cnnc4C3)c(C)c2c1 [CBK283075]
Second: CC(C)c1[nH]c2ncccc2c1CN1CCSCC1 [CBK285312]
The viability at 28.5 h, 10 µM of the first is higher: 109% for the first, 94% for the second.

Going from `Cc1ccc(N2C(=O)CC(Sc3ncccc3C(=O)O)C2=O)cc1` (centres unmarked) [CBK287761] to `CC(C)CN1C(=O)c2ccc(C(=O)NCc3ccc(C(=O)O)cc3)cc2C1=O` [CBK286898], the viability at 28.5 h, 10 µM rises from 87.7% to 116%.

Compared with `Cc1cccc(-c2noc([C@@H]3Cc4[nH]cnc4CN3C(=O)CC(C)(C)CC(=O)O)n2)c1` [CBK288961], `O=C(Cc1ccc(F)cc1)N1CCCC1c1cccc(Cc2ccc(F)cc2)n1` (centres unmarked) [CBK286234] is lower in viability at 28.5 h, 10 µM: 95.8% for the first, 94.7% for the second.

Going from `Cc1cc(OCC(=O)Nc2nc[nH]n2)ccc1Cl` [CBK264321] to `Cc1ccccc1-c1cnc(NS(C)(=O)=O)c(C(=O)N(C)C)c1` [CBK106430], the viability at 28.5 h, 10 µM falls from 117% to 103%.

Compared with `O=C(Nc1cccc2nsnc12)c1cc(Cl)ccc1NS(=O)(=O)c1cccc2nsnc12` [CBK261129], `O=C(COC(=O)c1cc(-c2ccco2)nc2ccccc12)Nc1ccc(F)c(F)c1F` [CBK296115] is higher in viability at 28.5 h, 10 µM: 80.9% for the first, 84.6% for the second.

First: COC1C(O)C(CO)OC1n1ccc(=O)[nH]c1=O (centres unmarked) [CBK201166]
Second: CNC(=O)C1/C(=N\O)c2ccccc2N1C(C)=O (centres unmarked) [CBK006569]
The viability at 28.5 h, 10 µM of the first is lower: 93.6% for the first, 114% for the second.

Compared with `O=C1CCC(=O)N1CCN1C(=O)C2(CC(=O)N(Cc3ccccc3)C2=O)c2ccccc21` (centres unmarked) [CBK075705], `O=C1NC2(CCN(C(=O)CC3c4ccccc4Oc4ccccc43)CC2)Nc2ccccc21` [CBK286307] is lower in viability at 28.5 h, 10 µM: 101% for the first, 98.8% for the second.

Going from `Cc1nc2c(c(N(C)C)n1)CCN(C(=O)C(C)n1cc(Cl)cn1)C2` (centres unmarked) [CBK307293] to `COc1nc(OCCNS(=O)(=O)c2ccc(C)cc2)nc(N(C)C)n1` [CBK266752], the viability at 28.5 h, 10 µM rises from 110% to 117%.

Going from `Cc1nccc(-c2cccc(NC3CCN(c4ccc5c(c4)OCCO5)CC3)c2)n1` [CBK286439] to `CN1CCCN(c2cncc(-c3ccc4c(c3)OCO4)n2)CC1` [CBK065978], the viability at 28.5 h, 10 µM falls from 97.1% to 91.7%.

Going from `CCCCNC(=S)N1CC[C@@H]2CN(C)C[C@]2(c2ccc(OC)c(OC)c2)C1` [CBK075101T] to `COc1ccc(OCCNC(=O)c2ccc(-c3ccccc3C)nc2N2CCN(C(=O)c3ccco3)CC2)cc1` [CBK076207], the viability at 28.5 h, 10 µM falls from 100% to 85.6%.

Going from `O=S(=O)(c1ccc(-c2ccccc2)cc1)N1CCCN(Cc2cccnc2N2CCOCC2)CC1` [CBK063127] to `Nc1ncc(-c2ccc(C(F)(F)F)cc2)c(C2CCCN(C(=O)CN3CCCC3)C2)n1` (centres unmarked) [CBK285649], the viability at 28.5 h, 10 µM falls from 99.5% to 91.6%.

First: CN(C)CCCO/N=C(\c1ccccc1)c1ccncc1 [CBK261464G]
Second: CN(c1ncccc1CNC(=O)c1cccnc1)C1CCCCC1 [CBK306555]
The viability at 28.5 h, 10 µM of the first is lower: 95.3% for the first, 103% for the second.

Going from `Cc1ccccc1/N=C1/NC(=O)/C(=C/c2ccc([N+](=O)[O-])o2)S1` [CBK094584] to `O=C(CC(CC(=O)c1ccc(Cl)cc1)c1ccccc1C(=O)O)c1ccc(Cl)cc1` [CBK265604], the viability at 28.5 h, 10 µM falls from 96.6% to 93.6%.

Compared with `C/C(=N/NC(=O)C(C)CN1CCOCC1)c1ccc(Cl)cc1` (centres unmarked) [CBK016045], `CC(C(=O)N1CCC(C(=O)c2nccs2)CC1)c1ccccc1` (centres unmarked) [CBK284163] is lower in viability at 28.5 h, 10 µM: 81.4% for the first, 80.8% for the second.
